Data reported in article PMC6409085, “Three odorant-binding proteins are involved in the behavioral response of Sogatella furcifera to rice plant volatiles” (PeerJ, 2019).
Values joined by “and” are separate entries in the source; they are usually repeats but may differ in a detail not shown here. Identical values can stand only once.

What was measured:
Assay in all cases: biochemical
Format in all cases: binding
SfurOBP2 = SfurOBP2 (Sogatella furcifera, UniProt V5T759)
How it was run: (§1)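 In 50 mM Tris-HCl pH 7.4, odorants displace 1-NPN (2.0 µM) from 2.0 µM protein. Emission at 390–490 nm under 337 nm excitation is measured 2 min after competitor addition, in triplicate. Ki is obtained from IC50 and the 1-NPN dissociation constant.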

SfurOBP1 = SfurOBP1 (Sogatella furcifera, UniProt V5T8N5); details: for Fluorescence competitive binding assay, fluorescence intensity: OBP1, three replicate columns
SfurOBP1, sequence (V5T8N5 entry or part of it): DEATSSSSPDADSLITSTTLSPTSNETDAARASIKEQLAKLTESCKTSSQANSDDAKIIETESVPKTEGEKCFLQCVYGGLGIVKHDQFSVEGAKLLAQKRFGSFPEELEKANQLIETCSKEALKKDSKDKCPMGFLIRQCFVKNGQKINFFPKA
How it was run: as §1

SfurOBP3 = SfurOBP3 (Sogatella furcifera, UniProt V5T818); details: for Fluorescence competitive binding assay, fluorescence intensity: OBP3, three replicate columns
SfurOBP3, sequence (V5T818 entry or part of it): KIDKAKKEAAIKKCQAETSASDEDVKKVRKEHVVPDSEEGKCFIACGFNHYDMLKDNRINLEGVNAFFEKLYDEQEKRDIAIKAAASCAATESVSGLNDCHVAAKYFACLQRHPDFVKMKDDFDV
How it was run: as §1

SfurOBP11 = SfurOBP11 (Sogatella furcifera, UniProt V5T6E3)
SfurOBP11, sequence (V5T6E3 entry or part of it): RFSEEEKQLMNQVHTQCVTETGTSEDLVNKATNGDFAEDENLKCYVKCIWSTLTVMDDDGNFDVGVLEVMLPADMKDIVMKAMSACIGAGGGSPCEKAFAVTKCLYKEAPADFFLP
How it was run: as §1

SfurOBP2, sequence (V5T759 entry or part of it): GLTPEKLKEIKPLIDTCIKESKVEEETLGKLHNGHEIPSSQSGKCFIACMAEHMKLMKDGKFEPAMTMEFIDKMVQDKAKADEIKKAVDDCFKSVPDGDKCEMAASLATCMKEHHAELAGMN

IC50 (SfurOBP2; SfurOBP2, protein and 1-NPN both 2.0 µM, competitor 2-20 µM, read-out: IC50): > 20 µM
Fluorescence competitive binding assay, OBP2 (raw fluorescence reading) (SfurOBP2; ligand concentration 2 (unit not given), replicate column 1 of 3): 17977
Fluorescence competitive binding assay, OBP2 (raw fluorescence reading) (SfurOBP2; ligand concentration 2 (unit not given), replicate column 2 of 3): 18256
Fluorescence competitive binding assay, OBP2 (raw fluorescence reading) (SfurOBP2; ligand concentration 2 (unit not given), replicate column 3 of 3): 18222
Fluorescence competitive binding assay, OBP2 (raw fluorescence reading) (SfurOBP2; ligand concentration 4 (unit not given), replicate column 1 of 3): 21586
Fluorescence competitive binding assay, OBP2 (raw fluorescence reading) (SfurOBP2; ligand concentration 4 (unit not given), replicate column 2 of 3): 19639
Fluorescence competitive binding assay, OBP2 (raw fluorescence reading) (SfurOBP2; ligand concentration 4 (unit not given), replicate column 3 of 3): 16260
Fluorescence competitive binding assay, OBP2 (raw fluorescence reading) (SfurOBP2; ligand concentration 6 (unit not given), replicate column 1 of 3): 18208
Fluorescence competitive binding assay, OBP2 (raw fluorescence reading) (SfurOBP2; ligand concentration 6 (unit not given), replicate column 2 of 3): 18064
Fluorescence competitive binding assay, OBP2 (raw fluorescence reading) (SfurOBP2; ligand concentration 6 (unit not given), replicate column 3 of 3): 15812
Fluorescence competitive binding assay, OBP2 (raw fluorescence reading) (SfurOBP2; ligand concentration 8 (unit not given), replicate column 1 of 3): 16946
Fluorescence competitive binding assay, OBP2 (raw fluorescence reading) (SfurOBP2; ligand concentration 8 (unit not given), replicate column 2 of 3): 12445
Fluorescence competitive binding assay, OBP2 (raw fluorescence reading) (SfurOBP2; ligand concentration 8 (unit not given), replicate column 3 of 3): 14953
Fluorescence competitive binding assay, OBP2 (raw fluorescence reading) (SfurOBP2; ligand concentration 10 (unit not given), replicate column 1 of 3): 16387
Fluorescence competitive binding assay, OBP2 (raw fluorescence reading) (SfurOBP2; ligand concentration 10 (unit not given), replicate column 2 of 3): 15939
Fluorescence competitive binding assay, OBP2 (raw fluorescence reading) (SfurOBP2; ligand concentration 10 (unit not given), replicate column 3 of 3): 15218
Fluorescence competitive binding assay, OBP2 (raw fluorescence reading) (SfurOBP2; ligand concentration 12 (unit not given), replicate column 1 of 3): 16171
Fluorescence competitive binding assay, OBP2 (raw fluorescence reading) (SfurOBP2; ligand concentration 12 (unit not given), replicate column 2 of 3): 15043
Fluorescence competitive binding assay, OBP2 (raw fluorescence reading) (SfurOBP2; ligand concentration 12 (unit not given), replicate column 3 of 3): 14391
Fluorescence competitive binding assay, OBP2 (raw fluorescence reading) (SfurOBP2; ligand concentration 14 (unit not given), replicate column 1 of 3): 14286
Fluorescence competitive binding assay, OBP2 (raw fluorescence reading) (SfurOBP2; ligand concentration 14 (unit not given), replicate column 2 of 3): 13952
Fluorescence competitive binding assay, OBP2 (raw fluorescence reading) (SfurOBP2; ligand concentration 14 (unit not given), replicate column 3 of 3): 14683
Fluorescence competitive binding assay, OBP2 (raw fluorescence reading) (SfurOBP2; ligand concentration 16 (unit not given), replicate column 1 of 3): 13014
Fluorescence competitive binding assay, OBP2 (raw fluorescence reading) (SfurOBP2; ligand concentration 16 (unit not given), replicate column 2 of 3): 12749
Fluorescence competitive binding assay, OBP2 (raw fluorescence reading) (SfurOBP2; ligand concentration 16 (unit not given), replicate column 3 of 3): 13096
Fluorescence competitive binding assay, OBP2 (raw fluorescence reading) (SfurOBP2; ligand concentration 18 (unit not given), replicate column 1 of 3): 12746
Fluorescence competitive binding assay, OBP2 (raw fluorescence reading) (SfurOBP2; ligand concentration 18 (unit not given), replicate column 2 of 3): 12759
Fluorescence competitive binding assay, OBP2 (raw fluorescence reading) (SfurOBP2; ligand concentration 18 (unit not given), replicate column 3 of 3): 12788
Fluorescence competitive binding assay, OBP2 (raw fluorescence reading) (SfurOBP2; ligand concentration 20 (unit not given), replicate column 1 of 3): 13087
Fluorescence competitive binding assay, OBP2 (raw fluorescence reading) (SfurOBP2; ligand concentration 20 (unit not given), replicate column 2 of 3): 12766
Fluorescence competitive binding assay, OBP2 (raw fluorescence reading) (SfurOBP2; ligand concentration 20 (unit not given), replicate column 3 of 3): 13106
Fluorescence competitive binding assay, fluorescence intensity (SfurOBP1; ligand concentration 2 (μM)): 7624 and 6465 and 8545
Fluorescence competitive binding assay, fluorescence intensity (SfurOBP1; ligand concentration 4 (μM)): 7313 and 7318 and 7353
Fluorescence competitive binding assay, fluorescence intensity (SfurOBP1; ligand concentration 6 (μM)): 7143 and 7275 and 7922
Fluorescence competitive binding assay, fluorescence intensity (SfurOBP1; ligand concentration 8 (μM)): 7358 and 7784 and 8873
Fluorescence competitive binding assay, fluorescence intensity (SfurOBP1; ligand concentration 10 (μM)): 7141 and 7560 and 7926
Fluorescence competitive binding assay, fluorescence intensity (SfurOBP1; ligand concentration 12 (μM)): 7810 and 7463 and 8566
Fluorescence competitive binding assay, fluorescence intensity (SfurOBP1; ligand concentration 14 (μM)): 7736 and 8413 and 7236
Fluorescence competitive binding assay, fluorescence intensity (SfurOBP1; ligand concentration 16 (μM)): 8777 and 6935 and 7055
Fluorescence competitive binding assay, fluorescence intensity (SfurOBP1; ligand concentration 18 (μM)): 9193 and 9578 and 9152
Fluorescence competitive binding assay, fluorescence intensity (SfurOBP1; ligand concentration 20 (μM)): 11048 and 9816 and 8594
IC50 (SfurOBP1; SfurOBP1, protein and 1-NPN both 2.0 µM, competitor 2-20 µM, read-out: IC50): > 20 µM
Fluorescence competitive binding assay, fluorescence intensity (SfurOBP3; ligand concentration 2): 67563 and 64113 and 67485
Fluorescence competitive binding assay, fluorescence intensity (SfurOBP3; ligand concentration 4): 70812 and 72838 and 74184
Fluorescence competitive binding assay, fluorescence intensity (SfurOBP3; ligand concentration 6): 65634 and 64114 and 68940
Fluorescence competitive binding assay, fluorescence intensity (SfurOBP3; ligand concentration 8): 62878 and 67093 and 68072
Fluorescence competitive binding assay, fluorescence intensity (SfurOBP3; ligand concentration 10): 60134 and 69541 and 65795
Fluorescence competitive binding assay, fluorescence intensity (SfurOBP3; ligand concentration 12): 68479 and 64625 and 78735
Fluorescence competitive binding assay, fluorescence intensity (SfurOBP3; ligand concentration 14): 60140 and 40039 and 67409
Fluorescence competitive binding assay, fluorescence intensity (SfurOBP3; ligand concentration 16): 38861 and 39269 and 45097
Fluorescence competitive binding assay, fluorescence intensity (SfurOBP3; ligand concentration 18): 51398 and 59369 and 52474
Fluorescence competitive binding assay, fluorescence intensity (SfurOBP3; ligand concentration 20): 68555 and 48789 and 43446
IC50 (SfurOBP3; SfurOBP3, protein and 1-NPN both 2.0 µM, competitor 2-20 µM, read-out: IC50): > 20 µM
IC50 (SfurOBP11; SfurOBP11, protein and 1-NPN both 2.0 µM, competitor 2-20 µM, read-out: IC50): > 20 µM
Fluorescence intensity, fluorescence competitive binding assay, OBP11 (SfurOBP11; ligand concentration 2, replicate 1): 24217
Fluorescence intensity, fluorescence competitive binding assay, OBP11 (SfurOBP11; ligand concentration 2, replicate 2): 24290
Fluorescence intensity, fluorescence competitive binding assay, OBP11 (SfurOBP11; ligand concentration 2, replicate 3): 24783
Fluorescence intensity, fluorescence competitive binding assay, OBP11 (SfurOBP11; ligand concentration 4, replicate 1): 24290
Fluorescence intensity, fluorescence competitive binding assay, OBP11 (SfurOBP11; ligand concentration 4, replicate 2): 24322
Fluorescence intensity, fluorescence competitive binding assay, OBP11 (SfurOBP11; ligand concentration 4, replicate 3): 23442
Fluorescence intensity, fluorescence competitive binding assay, OBP11 (SfurOBP11; ligand concentration 6, replicate 1): 24952
Fluorescence intensity, fluorescence competitive binding assay, OBP11 (SfurOBP11; ligand concentration 6, replicate 2): 22901
Fluorescence intensity, fluorescence competitive binding assay, OBP11 (SfurOBP11; ligand concentration 6, replicate 3): 24534
Fluorescence intensity, fluorescence competitive binding assay, OBP11 (SfurOBP11; ligand concentration 8, replicate 1): 24078
Fluorescence intensity, fluorescence competitive binding assay, OBP11 (SfurOBP11; ligand concentration 8, replicate 2): 21947
Fluorescence intensity, fluorescence competitive binding assay, OBP11 (SfurOBP11; ligand concentration 8, replicate 3): 24599
Fluorescence intensity, fluorescence competitive binding assay, OBP11 (SfurOBP11; ligand concentration 10, replicate 1): 22957
Fluorescence intensity, fluorescence competitive binding assay, OBP11 (SfurOBP11; ligand concentration 10, replicate 2): 24005
Fluorescence intensity, fluorescence competitive binding assay, OBP11 (SfurOBP11; ligand concentration 10, replicate 3): 23087
Fluorescence intensity, fluorescence competitive binding assay, OBP11 (SfurOBP11; ligand concentration 12, replicate 1): 20961
Fluorescence intensity, fluorescence competitive binding assay, OBP11 (SfurOBP11; ligand concentration 12, replicate 2): 21769
Fluorescence intensity, fluorescence competitive binding assay, OBP11 (SfurOBP11; ligand concentration 12, replicate 3): 22579
Fluorescence intensity, fluorescence competitive binding assay, OBP11 (SfurOBP11; ligand concentration 14, replicate 1): 19736
Fluorescence intensity, fluorescence competitive binding assay, OBP11 (SfurOBP11; ligand concentration 14, replicate 2): 20687
Fluorescence intensity, fluorescence competitive binding assay, OBP11 (SfurOBP11; ligand concentration 14, replicate 3): 20422
Fluorescence intensity, fluorescence competitive binding assay, OBP11 (SfurOBP11; ligand concentration 16, replicate 1): 16888
Fluorescence intensity, fluorescence competitive binding assay, OBP11 (SfurOBP11; ligand concentration 16, replicate 2): 20499
Fluorescence intensity, fluorescence competitive binding assay, OBP11 (SfurOBP11; ligand concentration 16, replicate 3): 18999
Fluorescence intensity, fluorescence competitive binding assay, OBP11 (SfurOBP11; ligand concentration 18, replicate 1): 18870
Fluorescence intensity, fluorescence competitive binding assay, OBP11 (SfurOBP11; ligand concentration 18, replicate 2): 19005
Fluorescence intensity, fluorescence competitive binding assay, OBP11 (SfurOBP11; ligand concentration 18, replicate 3): 19199
Fluorescence intensity, fluorescence competitive binding assay, OBP11 (SfurOBP11; ligand concentration 20, replicate 1): 20952
Fluorescence intensity, fluorescence competitive binding assay, OBP11 (SfurOBP11; ligand concentration 20, replicate 2): 19127
Fluorescence intensity, fluorescence competitive binding assay, OBP11 (SfurOBP11; ligand concentration 20, replicate 3): 18042
Compound: CCCCCCCCCCCCO [lauryl alcohol]
